Consider 21 molecules from patent US11596639B2, “Substituted indole Mcl-1 inhibitors” (Vanderbilt University, priority 2016, dated 2023).

Where only a bound is given, the exact number is not on record here.

Mcl-1, sequence (Q07820 172-327): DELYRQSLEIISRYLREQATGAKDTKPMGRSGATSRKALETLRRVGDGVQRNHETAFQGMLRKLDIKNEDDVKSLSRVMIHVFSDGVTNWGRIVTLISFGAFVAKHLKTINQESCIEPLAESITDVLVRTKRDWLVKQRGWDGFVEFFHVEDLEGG

This assay has as its target Mcl-1 (Homo sapiens (Human), UniProt Q07820). As to the kind of experiment: Fluorescence polarization anisotropy (FPA) competition assay, FITC-Bak or FITC-Bim BH3 peptide. In kind it is binding. Conditions: read-out: Ki for Inhibition of Mcl-1 by FPA assay.
On to `Cc1cc(OCCCc2c3n(c4c(-c5c(C)nn(C)c5C)c(Cl)ccc24)[C@H](C)CN(c2cccc4c2cc(C(=O)O)n4CCN2CCCC2)C3=O)cc(C)c1Cl` [Example 369, (R)-4-(7-Chloro-10-(3-(4-chloro-3,5-dimethylphenoxy)propyl)-4-methyl-1-oxo-6-(1,3,5-trimethyl-1H-pyrazol-4-yl)-3,4-dihydropyrazino[1,2-a]indol-2(1H)-yl)-1-(2-(pyrrolidin-1-yl)ethyl)-1H-indole-2-carboxylic acid], for which the Ki is 0.0032 µM.

In the case of `Cc1cc(CCCCc2c(C(=O)N3CCN(c4cc(C(=O)O)ccn4)CC3)n(Cc3cccnc3)c3c(-c4c(C)nn(C)c4C)c(Cl)ccc23)cc(C)c1Cl` [Example 741, 2-(4-(6-Chloro-3-(4-(4-chloro-3,5-dimethylphenyl)butyl)-1-(pyridin-3-ylmethyl)-7-(1,3,5-trimethyl-1H-pyrazol-4-yl)-1H-indole-2-carbonyl)piperazin-1-yl)isonicotinic acid], the Ki was > 0.2 µM.

For the molecule `Cc1cc(OCCCc2c3n(c4c(-c5c(C)nn(C)c5C)c(Cl)ccc24)CCCN(c2cc(C(=O)O)c4c(c2)nnn4C)C3=O)cc(C)c1Cl` [Example 5, 6-[8-Chloro-11-[3-(4-chloro-3,5-dimethyl-phenoxy)propyl]-1-oxo-7-(1,3,5-trimethylpyrazol-4-yl)-4,5-dihydro-3H-[1,4]diazepino[1,2-a]indol-2-yl]-3-methyl-benzotriazole-4-carboxylic acid], the inhibitory constant (Ki) came to 0.0027 µM.

For `Cc1cc(OCCCc2c3n(c4c(-c5c(C)nn(C)c5C)c(Cl)ccc24)CCCN(Cc2cc(C(=O)O)cc(N4CCN(C(=O)OC(C)(C)C)CC4)n2)C3=O)cc(C)c1Cl` [Example 8, 2-(4-(Tert-butoxycarbonyl)piperazin-1-yl)-6-((8-chloro-11-(3-(4-chloro-3,5-dimethylphenoxy)propyl)-1-oxo-7-(1,3,5-trimethyl-1H-pyrazol-4-yl)-4,5-dihydro-1H-[1,4]diazepino[1,2-a]indol-2(3H)-yl)methyl)isonicotinic acid], the Ki came to 0.027 µM. Under `CCN1C(=O)COc2cc(C(=O)O)cc(N3C[C@@H](C)n4c(c(CCCOc5cc(C)c(Cl)c(C)c5)c5ccc(Cl)c(-c6c(C)nn(C)c6C)c54)C3=O)c21` [Example 90, (R)-5-(7-chloro-10-(3-(4-chloro-3,5-dimethylphenoxy)propyl)-4-methyl-1-oxo-6-(1,3,5-trimethyl-1H-pyrazol-4-yl)-3,4-dihydropyrazino[1,2-a]indol-2(1H)-yl)-4-ethyl-3-oxo-3,4-dihydro-2H-benzo[b][1,4]oxazine-7-carboxylic acid] stands 0.0087 µM; under `COC(=O)c1cn(C)c2c(N3C[C@@H](C)n4c(c(CCCOc5cc(C)c(Cl)c(C)c5)c5ccc(Cl)c(-c6c(C)nn(C)c6C)c54)C3=O)cccc12` [Example 205, Methyl (R)-7-(7-chloro-10-(3-(4-chloro-3,5-dimethylphenoxy)propyl)-4-methyl-1-oxo-6-(1,3,5-trimethyl-1H-pyrazol-4-yl)-3,4-dihydropyrazino[1,2-a]indol-2(1H)-yl)-1-methyl-1H-indole-3-carboxylate], 0.0024 µM; under `Cc1cc(CCCCc2c(C(=O)N3CCN(c4ccnc(C(=O)O)c4)CC3)[nH]c3c(-c4c(C)nn(C)c4C)c(Cl)ccc23)cc(C)c1Cl` [Example 738, 4-(4-(6-Chloro-3-(4-(4-chloro-3,5-dimethylphenyl)butyl)-7-(1,3,5-trimethyl-1H-pyrazol-4-yl)-1H-indole-2-carbonyl)piperazin-1-yl)picolinic acid], 0.2 µM. Under `Cc1cc(OCCCc2c3n(c4c(-c5c(C)nn(C)c5C)c(Cl)ccc24)CCCN(c2cc4c(c(C(=O)O)c2)OCC4)C3=O)cc(C)c1Cl` [Example 18, 5-[8-chloro-11-[3-(4-chloro-3,5-dimethyl-phenoxy)propyl]-1-oxo-7-(1,3,5-trimethylpyrazol-4-yl)-4,5-dihydro-3H-[1,4]diazepino[1,2-a]indol-2-yl]-2,3-dihydrobenzofuran-7-carboxylic acid] stands 0.0058 µM; under `Cc1cc(OCCCc2c3n(c4c(-c5c(C)nn(C)c5C)c(Cl)ccc24)CCCN(Cc2cc(C(=O)O)cc(N4CCN(C(=O)N(C)C)CC4)n2)C3=O)cc(C)c1Cl` [Example 34, 2-((8-Chloro-11-(3-(4-chloro-3,5-dimethylphenoxy)propyl)-1-oxo-7-(1,3,5-trimethyl-1H-pyrazol-4-yl)-4,5-dihydro-1H-[1,4]diazepino[1,2-a]indol-2(3H)-yl)methyl)-6-(4-(dimethylcarbamoyl)piperazin-1-yl)isonicotinic acid], 0.012 µM. Then `Cc1cc(OCCCc2c(C(=O)NC3CCC(C(=O)O)CC3)[nH]c3c(-c4c(C)ncnc4C)c(Cl)ccc23)cc(C)c1Cl` (single isomer, unassigned) [Example 747, 4-(6-Chloro-3-(3-(4-chloro-3,5-dimethylphenoxy)propyl)-7-(4,6-dimethylpyrimidin-5-yl)-1H-indole-2-carboxamido)cyclohexane-1-carboxylic acid], with 0.016 µM. For `Cc1cc(CCCCc2c(C(=O)N3CCN(c4ccccc4C(=O)O)CC3)n(Cc3cccnc3)c3c(-c4c(C)nn(C)c4C)c(Cl)ccc23)cc(C)c1Cl` [Example 739, 2-(4-(6-Chloro-3-(4-(4-chloro-3,5-dimethylphenyl)butyl)-1-(pyridin-3-ylmethyl)-7-(1,3,5-trimethyl-1H-pyrazol-4-yl)-1H-indole-2-carbonyl)piperazin-1-yl)benzoic acid], the Ki was determined as 0.073 µM. Then `Cc1cc(OCCCc2c3n(c4c(-c5c(C)nn(C)c5C)c(Cl)ccc24)[C@H](C)CN(c2cn(C)c4ccc(C(F)(F)F)cc24)C3=O)cc(C)c1Cl` (single isomer, unassigned) [Example 193], with 0.0039 µM; and `Cc1cc(OCCCc2c(C(=O)N3CCC(C(=O)O)C3)[nH]c3c(-c4c(C)ncnc4C)c(Cl)ccc23)cc(C)c1Cl` (stereo not drawn) [Example 745, 1-[6-Chloro-3-[3-(4-chloro-3,5-dimethyl-phenoxy)propyl]-7-(4,6-dimethylpyrimidin-5-yl)-1H-indole-2-carbonyl]pyrrolidine-3-carboxylic acid], with 0.044 µM. Under `Cc1cc(OCCCc2c3n(c4c(-c5c(C)nn(C)c5C)c(Cl)ccc24)CCCN(c2cc4c(c(C(=O)O)c2)OCCO4)C3=O)cc(C)c1Cl` [Example 25, 7-(8-Chloro-11-(3-(4-chloro-3,5-dimethylphenoxy)propyl)-1-oxo-7-(1,3,5-trimethyl-1H-pyrazol-4-yl)-4,5-dihydro-1H-[1,4]diazepino[1,2-a]indol-2(3H)-yl)-2,3-dihydrobenzo[b][1,4]dioxine-5-carboxylic acid] stands 0.0011 µM; under `Cc1cc(CCCCc2c(C(=O)N3CCN(c4ccccc4C(=O)O)CC3)[nH]c3c(-c4c(C)nn(C)c4C)c(Cl)ccc23)cc(C)c1Cl` [Example 744, 2-(4-(6-Chloro-3-(4-(4-chloro-3,5-dimethylphenyl)butyl)-7-(1,3,5-trimethyl-1H-pyrazol-4-yl)-1H-indole-2-carbonyl)piperazin-1-yl)benzoic acid], 0.03 µM. Then `Cc1cc(OCCCc2c3n(c4c(-c5c(C)nn(C)c5C)c(Cl)ccc24)CCCN(Cc2cc(C(=O)O)cc(N4CCN(S(=O)(=O)CCc5ccccc5)CC4)n2)C3=O)cc(C)c1Cl` [Example 38, 2-((8-Chloro-11-(3-(4-chloro-3,5-dimethylphenoxy)propyl)-1-oxo-7-(1,3,5-trimethyl-1H-pyrazol-4-yl)-4,5-dihydro-1H-[1,4]diazepino[1,2-a]indol-2(3H)-yl)methyl)-6-(4-(phenethylsulfonyl)piperazin-1-yl)isonicotinic acid], with 0.062 µM; and `COC(=O)c1ccc2c(c1)c(N1C[C@@H](C)n3c(c(CCCOc4cc(C)c(Cl)c(C)c4)c4ccc(Cl)c(-c5c(C)nn(C)c5C)c43)C1=O)cn2COCC[Si](C)(C)C` [Example 243, Methyl (R)-3-(7-chloro-10-(3-(4-chloro-3,5-dimethylphenoxy)propyl)-4-methyl-1-oxo-6-(1,3,5-trimethyl-1H-pyrazol-4-yl)-3,4-dihydropyrazino[1,2-a]indol-2(1H)-yl)-1-((2-(trimethylsilyl)ethoxy)methyl)-1H-indole-5-carboxylate], with 0.045 µM. For `Cc1cc(OCCCc2c3n(c4c(-c5c(C)nn(C)c5C)c(Cl)ccc24)[C@H](C)CN(c2cc(O)cc4c2cc(C(=O)O)n4C)C3=O)cc(C)c1Cl` [Example 303, (P, R)-4-(7-chloro-10-(3-(4-chloro-3,5-dimethylphenoxy)propyl)-4-methyl-1-oxo-6-(1,3,5-trimethyl-1H-pyrazol-4-yl)-3,4-dihydropyrazino[1,2-a]indol-2(1H)-yl)-6-hydroxy-1-methyl-1H-indole-2-carboxylic acid], the Ki was < 0.001 µM. Then `Cc1cc(OCCCc2c3n(c4c(-c5c(C)nn(C)c5C)c(Cl)ccc24)[C@H](C)CN(c2cn(C)c4ccc(-c5nnc(-c6ccccc6)o5)cc24)C3=O)cc(C)c1Cl` [Example 421, (R)-7-chloro-10-(3-(4-chloro-3,5-dimethylphenoxy)propyl)-4-methyl-2-(1-methyl-5-(5-phenyl-1,3,4-oxadiazol-2-yl)-1H-indol-3-yl)-6-(1,3,5-trimethyl-1H-pyrazol-4-yl)-3,4-dihydropyrazino[1,2-a]indol-1(2H)-one], with 0.0034 µM; and `CC(=O)N1CCN(c2cc(C(=O)O)cc(CN3CCCn4c(c(CCCOc5cc(C)c(Cl)c(C)c5)c5ccc(Cl)c(-c6c(C)nn(C)c6C)c54)C3=O)n2)CC1` [Example 17, 2-(4-acetylpiperazin-1-yl)-6-((8-chloro-11-(3-(4-chloro-3,5-dimethylphenoxy)propyl)-1-oxo-7-(1,3,5-trimethyl-1H-pyrazol-4-yl)-4,5-dihydro-1H-[1,4]diazepino[1,2-a]indol-2(3H)-yl)methyl)isonicotinic acid], with 0.01 µM; and `COC(=O)c1cc2c(c(N3CCCn4c(c(CCCOc5cc(C)c(Cl)c(C)c5)c5ccc(Cl)c(-c6c(C)nn(C)c6C)c54)C3=O)c1)OCCO2` [Example 60, Methyl 8-(8-chloro-11-(3-(4-chloro-3,5-dimethylphenoxy)propyl)-1-oxo-7-(1,3,5-trimethyl-1H-pyrazol-4-yl)-4,5-dihydro-1H-[1,4]diazepino[1,2-a]indol-2(3H)-yl)-2,3-dihydrobenzo[b][1,4]dioxine-6-carboxylate], with < 0.001 µM.
